# Source: PubChem BioAssay AID1963872 (Molecular Pharmacology Branch, DTP, NCI, 2024)
# Test system: KRAS patient-derived spheroids with HUVEC/MSC, viability
# Assay: Anticancer human tumor 519858-162-T-J1-PDC patient-derived colon adenocarcinoma cell line growth inhibition [KRAS2]
# Settings: for IC50: curve of first compound; for viability, T/C: stronger effect = lower value
# Summary of the method: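 KRAS-mutant tumor cells were grown as spheroids with HUVEC endothelial cells and human MSCs as stroma. Targeted agents were tested alone and with KRAS pathway inhibitors. Doses started at or near clinical Cmax, or 10 microM, descending half-log.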
# [1] = second compound 0.0316 µM, first compound 0.0316 µM
# [2] = second compound 0.0316 µM, first compound 0.1 µM
# [3] = second compound 0.0316 µM, first compound 0.316 µM
# [4] = second compound 0.0316 µM, first compound 1 µM
# [5] = second compound 0.0316 µM, first compound 3.16 µM
# [6] = second compound 0.0316 µM, first compound 10 µM
# [7] = second compound 0.1 µM, first compound 0.0316 µM
# [8] = second compound 0.1 µM, first compound 0.1 µM
# [9] = second compound 0.1 µM, first compound 0.316 µM
# [10] = second compound 0.1 µM, first compound 1 µM
# [11] = second compound 0.1 µM, first compound 3.16 µM
# [12] = second compound 0.1 µM, first compound 10 µM
# [13] = second compound 0.316 µM, first compound 0.0316 µM
# [14] = second compound 0.316 µM, first compound 0.1 µM
# [15] = second compound 0.316 µM, first compound 0.316 µM
# [16] = second compound 0.316 µM, first compound 1 µM
# [17] = second compound 0.316 µM, first compound 3.16 µM
# [18] = second compound 0.316 µM, first compound 10 µM
# [19] = second compound 1 µM, first compound 0.0316 µM
# [20] = second compound 1 µM, first compound 0.1 µM
# [21] = second compound 1 µM, first compound 0.316 µM
# [22] = second compound 1 µM, first compound 1 µM
# [23] = second compound 1 µM, first compound 3.16 µM
# [24] = second compound 1 µM, first compound 10 µM
# [25] = second compound 3.16 µM, first compound 0.0316 µM
# [26] = second compound 3.16 µM, first compound 0.1 µM
# [27] = second compound 3.16 µM, first compound 0.316 µM
# [28] = second compound 3.16 µM, first compound 1 µM
# [29] = second compound 3.16 µM, first compound 3.16 µM
# [30] = second compound 3.16 µM, first compound 10 µM
# 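Also: compound exposure lasted seven days before readout.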
# 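For viability, T/C in this document: 100% = DMSO vehicle control viability.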
Compound,IC50 (second compound 0.0316 µM),IC50 (second compound 0.1 µM),IC50 (second compound 0.316 µM),IC50 (second compound 1 µM),IC50 (second compound 3.16 µM),"viability, T/C [1]","viability, T/C [2]","viability, T/C [3]","viability, T/C [4]","viability, T/C [5]","viability, T/C [6]","viability, T/C [7]","viability, T/C [8]","viability, T/C [9]","viability, T/C [13]","viability, T/C [14]","viability, T/C [19]","viability, T/C [20]","viability, T/C [25]","viability, T/C [26]",other results
COc1cc(Nc2ncc3c(n2)-c2ccc(Cl)cc2C(c2c(F)cccc2OC)=NC3)ccc1C(=O)O + C=CC(=O)N1CCN(c2nc(OCC3CCCN3C)nc3c2CCN(c2cccc4cccc(C)c24)C3)CC1CC#N,> 10 µM,> 10 µM,> 10 µM,> 10 µM,> 10 µM,104%,87.2%,97.3%,90.3%,74.6%,98%,89.1%,82.2%,102%,105%,89.9%,103%,80.8%,74.5%,83%,"viability, T/C [10]: 78.8%; viability, T/C [11]: 90.5%; viability, T/C [12]: 130%; viability, T/C [15]: 63.2%; viability, T/C [16]: 75%; viability, T/C [17]: 82.5%; viability, T/C [18]: 111%; viability, T/C [21]: 66.8%; viability, T/C [22]: 69.2%; viability, T/C [23]: 99.8%; viability, T/C [24]: 110%; viability, T/C [27]: 75.3%; viability, T/C [28]: 77.2%; viability, T/C [29]: 109%; viability, T/C [30]: 74.3%"
COc1cc2nccc(Oc3ccc(NC(=O)C4(C(=O)Nc5ccc(F)cc5)CC4)cc3)c2cc1OC + C=CC(=O)N1CCN(c2nc(OCC3CCCN3C)nc3c2CCN(c2cccc4cccc(C)c24)C3)CC1CC#N,> 10 µM,> 10 µM,> 10 µM,> 10 µM,4.78 µM,73.6%,99.7%,91.6%,78.1%,103%,122%,85.2%,98.3%,80.3%,109%,82.5%,71.5%,74.5%,77.6%,72.2%,"viability, T/C [10]: 77.9%; viability, T/C [11]: 77.2%; viability, T/C [12]: 84.5%; viability, T/C [15]: 109%; viability, T/C [16]: 99.1%; viability, T/C [17]: 98.5%; viability, T/C [18]: 132%; viability, T/C [21]: 77.6%; viability, T/C [22]: 76.8%; viability, T/C [23]: 104%; viability, T/C [24]: 145%; viability, T/C [27]: 69.5%; viability, T/C [28]: 74.8%; viability, T/C [29]: 93.5%; viability, T/C [30]: 0.86%"
Cn1ncnc1[C@H]1c2n[nH]c(=O)c3cc(F)cc(c23)N[C@@H]1c1ccc(F)cc1 + C=CC(=O)N1CCN(c2nc(OCC3CCCN3C)nc3c2CCN(c2cccc4cccc(C)c24)C3)CC1CC#N,> 0.1 µM,> 0.1 µM,> 0.1 µM,> 0.1 µM,> 0.1 µM,68.9%,65.5%,,,,,85.9%,91.7%,,78.5%,76.3%,84.2%,72.3%,59.2%,58.9%,"viability, T/C (second compound 0.0316 µM, first compound 0.000316 µM): 84.3%; viability, T/C (second compound 0.0316 µM, first compound 0.001 µM): 88.4%; viability, T/C (second compound 0.0316 µM, first compound 0.00316 µM): 75.1%; viability, T/C (second compound 0.0316 µM, first compound 0.01 µM): 89.1%; viability, T/C (second compound 0.1 µM, first compound 0.000316 µM): 62.2%; viability, T/C (second compound 0.1 µM, first compound 0.001 µM): 74.2%; viability, T/C (second compound 0.1 µM, first compound 0.00316 µM): 76.6%; viability, T/C (second compound 0.1 µM, first compound 0.01 µM): 70.2%; viability, T/C (second compound 0.316 µM, first compound 0.000316 µM): 66%; viability, T/C (second compound 0.316 µM, first compound 0.001 µM): 73.8%; viability, T/C (second compound 0.316 µM, first compound 0.00316 µM): 74.1%; viability, T/C (second compound 0.316 µM, first compound 0.01 µM): 66.3%; viability, T/C (second compound 1 µM, first compound 0.000316 µM): 61.3%; viability, T/C (second compound 1 µM, first compound 0.001 µM): 75.8%; viability, T/C (second compound 1 µM, first compound 0.00316 µM): 59.6%; viability, T/C (second compound 1 µM, first compound 0.01 µM): 72.3%; viability, T/C (second compound 3.16 µM, first compound 0.000316 µM): 71.7%; viability, T/C (second compound 3.16 µM, first compound 0.001 µM): 67.4%; viability, T/C (second compound 3.16 µM, first compound 0.00316 µM): 62.3%; viability, T/C (second compound 3.16 µM, first compound 0.01 µM): 62.3%"
